Experimental data as given in patent US20240075123A1, “TREATMENT OF CANCERS AND INFECTIOUS DISEASES WITH KILLED INTACT BACTERIA” (priority 2022, published 2024).

Tests used:
[1] = tested on: Pan02 pancreatic carcinoma; test: Intrasplenic Pan02 pancreatic carcinoma, second experiment; type: in vivo, mouse; settings: single agents
Description: A group of animals administered Decoy vehicle was used as the control.

[2] = tested on: H22 hepatocellular carcinoma; test: s.c. H22 hepatocellular carcinoma, first study (194 mm^3); type: in vivo; settings: single agents; Decoy QD×2 weekly 6 weeks
Description: Treatment was initiated when the average tumor size was 194 mm^3. […] Indomethacin was administered at 10 μg/mL, p.o., ad libitum daily in drinking water×6 weeks (alone and in combinations) and anti-PD-1 was administered at 10 mg/kg, i.p., BIW×2 weeks (alone and in combinations). A group of animals that received no treatment was used as the control in the study.

[3] = tested on: H22 hepatocellular carcinoma; test: s.c. H22 hepatocellular carcinoma, second study (E0776-U1802); type: in vivo
Description: Indomethacin was tested at 10 μg/mL in drinking water, p.o. ad libitum daily for either 2 or 6 weeks. Anti-PD-1 was tested at 10 mg/kg, i.p. 2× per week for 2 weeks. Dosing was started when the average tumor size was 184 mm^3. A group of untreated animals was used as the control.

[4] = tested on: H22 hepatocellular carcinoma; settings: mouse, in vivo
Description: Indomethacin was tested at 10 μg/mL in drinking water, p.o. ad libitum daily for either 4 or 7 weeks. […] Treatment was started when the average tumor size was 123 mm^3.

H22 tumors = test: s.c. H22 HCC, plasma cytokine/chemokine induction and one-week treatment; type: in vivo, mouse
Description: Female BALB/c mice with ˜200 mm^3 H22 tumors were randomized on Day-0 into 8 groups, each containing 3 sub-groups. All of the possible treatment approaches or combinations, including no treatment, were carried out. Mice from each of two subgroups from each group (5 mice per sub-group) were sacrificed 6 and 24 hours after no treatment, single, 2-way, or 3-way combination treatment. In the case of 2way and 3-way combination treatment, mice were sacrificed 6 and 24 hours after the first treatment instance of the second or third component of the combination. Plasma was prepared from each mouse and 32-plex ELISA-based cytokine/chemokine analysis was carried out. A third sub-group from each group (6 mice each) was treated for one week, with tumor volumes measured at randomization, once during the week and at the end of one week of treatment. Mice were sacrificed, then tumors were harvested and RNA was isolated. The 48 RNA samples were analyzed for expression of 770 genes involved in immune response pathways, using NanoString technology.
Indomethacin induced expression of only 2/32 cytokines/chemokines, and only at 6 hours after initiation of treatment. […] There was no increase in weight loss in any of the combination groups, relative to single agent treatment. […]

Ramos NHL xenograft = test: s.c. human Ramos NHL xenograft in CB17/SCID mice; set-up: species or system mouse; settings: in vivo
Description: This was tested with the human Ramos NHL xenograft model in SCID mice, which lack B and T cells.
Maximum transient weight loss for all non-indomethacin groups was generally in the 5% to 10% range. […] However, cure of at least some percentage of the mice is possible with the 3-way combination as a repeat produced 2/4 durable regressions in mice.
The 5 tumor-regressed mice were re-challenged with fresh Ramos tumor cells (opposite flank from first challenge) on Day 74. Only 2/5 tumors grew out, compared to 5/5 with naïve mice challenged with the same fresh tumor cells (FIG. 26). […] This has been reported previously with a small number of other agents, and is considered to be very difficult to achieve. Tumor regression with immunological memory via the innate immune system alone is very rare in preclinical models, but consistent with a multiple TLR agonist mechanism.

hepatitis B virus (HBV) [5] = test: AAV-HBV mouse model of chronic HBV infection, first study; type: in vivo; settings: for HBV replication (measured in blood): 5 weeks of dosing
Description: (§1) The anti-hepatitis B virus (HBV) efficacy of Decoy was evaluated in two studies. A standard pre-clinical model was used in which the human HBV genome is inserted in an adeno-associated virus (AAV). This hybrid construct is able to infect mouse hepatocytes, producing a chronic HBV-like infection with many of the hallmarks of human HBV infection, including high levels of HBV replication in liver and blood and production of HBe and HBs antigen (HBeAg and HBsAg). AAV-HBV virus is administered to mice and then blood titers of HBV DNA are monitored. Significant and relatively stable blood levels of HBV appear within 28-31 days, at which point treatment is initiated. Indomethacin was administered with Decoy in many groups in the first study, but not in the second study.
In the first study, Decoy (two different doses) was tested in combination with indomethacin and also in combination with the clinical standard of care, Entecavir (ETV). ETV and indomethacin were also tested as single agents (first study). […] In addition, ETV and mIFN-alpha were tested as single agents and in combination with Decoy (one dose).
Decoy-induced body weight loss was mild, transient (6% for […] in first week of treatment) and tapered off after the first week of treatment (tolerance phenomenon) (FIG. 28).

HIV-1 = test: Chronic HIV humanized hu-mouse model; type: in vivo; settings: 5 weeks of treatment
human PBMCs = test: Cytokine secretion by human PBMCs in vitro; type: cell-based; settings: 48 hr, full titration peak/mean of triplicates; Study AB64785
Description: TLR ligands such as E. coli LPS, ds E. coli DNA, E. coli peptidoglycan (PGN), Flagellin, R848, Polyinosinic-polycytidylic acid (poly I:C), and CpG oligonucleotide (ODN) were also assessed in these studies. Initial experiments were carried out with incubation for 24, 48 and 72 hours, as well as with and without immune cell activation with anti-CD3. […] In addition, maximal induction of secretion of most cytokines and chemokines occurred after 48 hours. […] Essentially all cytokines and chemokines participate in activation of innate and/or adaptive (including anti-tumor and anti-viral) immune pathways, but can also induce significant toxicity if expressed in the wrong place, at the wrong time, for too long, or at an inappropriately high level.

[6] = tested on: Pan02 pancreatic carcinoma; test: Intrasplenic Pan02 pancreatic carcinoma, first experiment; type: in vivo; settings: Decoy 5×10^7 and 2×10^8 per mouse; gemcitabine 50 mg/kg i.p.
Description: Pancreatic tumor cells were surgically implanted (injected) into the spleen of C57BL/6 female mice on Day 0. […] A group of untreated animals was used as the control. All untreated animals developed large tumors in the spleen, liver and pancreas, requiring termination around Day 30.

CT26 tumors = test: s.c. established CT26 tumors, Decoy with LDC; type: in vivo, mouse; settings: Decoy alone 6.0×10^8; LDC 20 mg/kg i.p.; combination 3×10^8 Decoy + LDC
Description: LDC alone produced a 57% ILS, which was statistically significant.

[7] = tested on: CT26.WT colorectal carcinoma; test: s.c. CT26.WT, Decoy (DB104) with cyclophosphamide (CTX); type: in vivo, mouse; settings: vs untreated mice; Decoy single agent all doses (p<0.05); CTX both schedules
Description: Mouse CT26.WT colorectal carcinoma cells were implanted (injected) into the right flank of BALB/c mice. Animals were randomized and treatments were initiated (Starting Day=SD) with a mean group tumor weight of 75 to 79 mg. […] A group of animals that received no treatment was used as the control.

[8] = tested on: A20 non-Hodgkin's lymphoma; test: s.c. A20 lymphoma, Decoy dose and regimen with LDC; type: in vivo, mouse; settings: LDC alone
Description: A group of untreated animals was used as the control. LDC alone was also tested. Treatment was initiated on Day 13 when the average tumor size was 158 mm^3.

[9] = tested on: A20 non-Hodgkin's lymphoma; test: s.c. A20 lymphoma, repeat and immune cell depletion; type: in vivo, mouse; settings: 212 mm^3 tumors; two weeks of treatment
Description: A group of untreated animals was used as the control. Treatment was started when the average tumor size was 212 mm^3. […] Combination with LDC produced 12% transient weight loss in the first week and 13.6% transient weight loss in the second week.
Tumor implantation was carried out during the depletion regimen. […] Extra mice in each group were sacrificed at the time of initiation of treatment in order to verify immune cell depletion. […] The positive control included 2 groups of 6 mice each (one group received indomethacin), with 10/12 CRs/regressions (6/6 regressions without indomethacin and 4/6 regressions with added indomethacin). […] Thus, in addition to immune activation associated with innate and adaptive immune cells, LPS provides a key bridging activity between the innate and adaptive immune systems.

healthy human volunteers = settings: purified LPS, over 1,000 healthy human volunteers; cited from earlier work
hepatitis B virus (HBV) [10] = test: AAV-HBV mouse model of chronic HBV infection, second study; type: in vivo
Description: as §1
A group of untreated animals was included in the study. All treatment was well tolerated in AAV-HB V-infected mice.
No inhibition of other infection hallmarks was observed by mIFN-alpha.

Question: With `COc1ccc2c(c1)c(CC(=O)O)c(C)n2C(=O)c1ccc(Cl)cc1` [indomethacin] as the molecule, how does the survival [1] read?
Answer: did not increase survival significantly

Question: What about the “increase in life-span (% ILS)” value [2] of the same molecule?
Answer: 30%

Question: What about the regressions ([3]; 6 week indomethacin treatment) of the same molecule?
Answer: did not see any regressions

Question: What about the “regressions (6 animals per group)” value ([3]; indomethacin 2 weeks, indomethacin 2 weeks+anti-PD-1, Decoy QD×2 6 weeks+indomethacin 6 weeks) of the same molecule?
Answer: one

Question: And the “lifespan (ILS)” value ([3]; single agents, indomethacin 2 weeks and 6 weeks)?
Answer: statistically significant increase in lifespan

Question: What about the Transient weight loss [4] of the same molecule?
Answer: not seen

Question: What about the “plasma cytokines/chemokines induced (of 32)” value (H22 tumors; 6 or 24 hours after treatment) of the same molecule?
Answer: 2/32

Question: What about the “Tumor growth inhibition relative to no treatment” value (H22 tumors; after one week of treatment) of the same molecule?
Answer: 17%

Question: And the “single agent anti-tumor activity” value (Ramos NHL xenograft)?
Answer: did not produce single agent activity

Question: What about the “HBV replication (measured in blood)” value (hepatitis B virus (HBV) [5]) of the same molecule?
Answer: did not inhibit HBV replication

Question: And the “HIV viral load in plasma” value (HIV-1)?
Answer: inhibited HIV viral load

Question: For “Polyinosinic-polycytidylic acid [Poly(I:C)]”, which “GM-CSF secretion by human PBMCs” value (human PBMCs) is on record?
Answer: 0 pg/mL

Question: And the “IFNγ secretion by human PBMCs” value (human PBMCs)?
Answer: 103 pg/mL

Question: What about the “IL-1β secretion by human PBMCs” value (human PBMCs) of the same molecule?
Answer: 22 pg/mL

Question: And the “IL-6 secretion by human PBMCs” value (human PBMCs)?
Answer: 129 pg/mL

Question: And the “IL-8 secretion by human PBMCs” value (human PBMCs)?
Answer: 1,452 pg/mL

Question: And the “IL-10 secretion by human PBMCs” value (human PBMCs)?
Answer: 8 pg/mL

Question: What about the “IL-12p70 secretion by human PBMCs” value (human PBMCs) of the same molecule?
Answer: 18 pg/mL

Question: What about the “TNFα secretion by human PBMCs” value (human PBMCs) of the same molecule?
Answer: 208 pg/mL

Question: For `Nc1ccn([C@@H]2O[C@H](CO)[C@@H](O)C2(F)F)c(=O)n1` [gemcitabine], which median survival time [6] is on record?
Answer: significant increase in median survival

Question: What about the survival [1] of the same molecule?
Answer: increased survival

Question: And the “single agent anti-tumor activity” value [4]?
Answer: weak, but statistically significant

Question: What about the weight loss [4] of the same molecule?
Answer: 20%

Question: Which “increased lifespan (% ILS)” value (CT26 tumors) does the source give for `O=P1(N(CCCl)CCCl)NCCCO1` (stereo not drawn) [LDC, cyclophosphamide] here?
Answer: 57%

Question: And the “inhibition of tumor growth” value [7]?
Answer: significant tumor growth inhibition

Question: What about the “single agent anti-tumor activity” value [4] of the same molecule?
Answer: weak, but statistically significant

Question: And the “tumor regression (group of 4)” value [8]?
Answer: one

Question: What about the regressions [9] of the same molecule?
Answer: without producing any regressions

Question: Which “single agent anti-tumor activity” value (Ramos NHL xenograft) does the source give for rituximab here?
Answer: inhibited or delayed

Question: With lipopolysaccharide [LPS] as the molecule, how does the “GM-CSF secretion by human PBMCs” value (human PBMCs) read?
Answer: 175 pg/mL

Question: And the “IFNγ secretion by human PBMCs” value (human PBMCs)?
Answer: 29,416 pg/mL

Question: And the “IL-1β secretion by human PBMCs” value (human PBMCs)?
Answer: 4,631 pg/mL

Question: What about the “IL-6 secretion by human PBMCs” value (human PBMCs) of the same molecule?
Answer: 54,174 pg/mL

Question: What about the “IL-8 secretion by human PBMCs” value (human PBMCs) of the same molecule?
Answer: 143,459 pg/mL

Question: What about the “IL-10 secretion by human PBMCs” value (human PBMCs) of the same molecule?
Answer: 3,542 pg/mL

Question: And the “IL-12p70 secretion by human PBMCs” value (human PBMCs)?
Answer: 109 pg/mL

Question: And the “TNFα secretion by human PBMCs” value (human PBMCs)?
Answer: 24,944 pg/mL

Question: What about the “highest dose determined to be well-tolerated after IV administration” value (healthy human volunteers) of the same molecule?
Answer: 4 ng/kg

Question: Which “HBV replication (measured in blood)” value (hepatitis B virus (HBV) [5]) does the source give for `C=C1[C@H](CO)[C@@H](O)C[C@@H]1n1cnc2c(=O)[nH]c(N)nc21` [ETV, Entecavir] here?
Answer: significantly inhibited HBV replication

Question: And the “HBeAg and HBsAg in blood” value (hepatitis B virus (HBV) [5]; mouse, in vivo)?
Answer: not to reduce or inhibit production of HBeAg or HBsAg

Question: What about the “inhibition of HBcAg in the liver” value (hepatitis B virus (HBV) [5]; mouse, in vivo) of the same molecule?
Answer: not

Question: What about the “reduction of HBV in the liver” value (hepatitis B virus (HBV) [5]; mouse, in vivo) of the same molecule?
Answer: not

Question: What about the “plasma HBV DNA levels” value (hepatitis B virus (HBV) [10]; Day 31 to Day 151, no indomethacin) of the same molecule?
Answer: reduced plasma HBV DNA levels

Question: And the “HBV DNA and HBeAg levels in mouse liver at termination” value (hepatitis B virus (HBV) [10]; mouse, in vivo)?
Answer: not

Question: What about the “plasma HBsAg and HBeAg levels” value (hepatitis B virus (HBV) [10]; mouse, in vivo) of the same molecule?
Answer: not
